# Reference: US9522881B2, “Hydroxyindole carboxylic acid based inhibitors for oncogenic Src homology-2 domain containing protein tyrosine phosphatase-2 (SHP2)” (Indiana University Research and Technology Corporation, priority 2013, dated 2016)
# Molecular target: SHP2 (Homo sapiens (Human), UniProt Q06124)
# Experiment: SHP2-catalyzed hydrolysis of p-nitrophenyl phosphate (pNPP)
# Format: biochemical
# Settings: not given
# Method: Libraries 11a-d were screened at ˜5 μM for SHP2 inhibitors without further purification. The ability of the library components to inhibit the SHP2-catalyzed hydrolysis of p-nitrophenyl phosphate (pNPP) was evaluated at pH 7.0 and 25° C. More particularly, the phosphatase activity of SHP2 was assayed using p-nitrophenyl phosphate (pNPP) as a substrate at 25° C. in 50 mM 3,3-dimethylglutarate buffer, pH 7.0, containing 1 mM EDTA with an ionic strength of […] adjusted by NaCl. The libraries were screened in a 96-well format at 5 μM compound concentration. […] The nonenzymatic hydrolysis of pNPP was corrected by measuring the control without the addition of enzyme. The amount of product p-nitrophenol was determined from the absorbance at 405 nm detected by a Spectra MAX340 microplate spectrophotometer (Molecular Devices, Sunnyvale, Calif.) using a molar extinction coefficient of 18,000 M^−1 cm^−1. […] IC50 values for selected resynthesized and purified hits were calculated by fitting the absorbance at 405 nm versus inhibitor concentration to the following equation: AI/A0=IC50/(IC50+[I]) where AI is the absorbance at 405 nm of the sample in the presence of the inhibitor; A0 is the absorbance at 405 nm in the absence of inhibitor; and [I] is the concentration of the inhibitor.
"SHP2 inhibition, in words","IC50 for SHP2, times higher than that of 11a-1",SMILES
strongly inhibited,,"Cn1c(-c2cccc(NC(=O)C(=O)Nc3ccc(-c4ccccc4)cc3)c2)c(I)c2cc(C(=O)O)c(O)cc21 [11a-2, 2-(3-(2-([1,1′-biphenyl]-4-ylamino)-2-oxoacetamido)phenyl)-6-hydroxy-3-iodo-1-methyl-1H-indole-5-carboxylic acid]"
submicromolar,,"Cn1c(-c2cccc(NC(=O)C(=O)Nc3ccc(OCc4ccccc4)c(Cl)c3)c2)c(I)c2cc(C(=O)O)c(O)cc21 [11a-3, 2-(3-(2-((4-(benzyloxy)-3-chlorophenyl)amino)-2-oxoacetamido)phenyl)-6-hydroxy-3-iodo-1-methyl-1H-indole-5-carboxylic acid]"
submicromolar,,"Cn1c(-c2cccc(NC(=O)C(=O)Nc3cccc(OCc4ccccc4)c3)c2)c(I)c2cc(C(=O)O)c(O)cc21 [11a-6, 2-(3-(2-((3-(benzyloxy)phenyl)amino)-2-oxoacetamido)phenyl)-6-hydroxy-3-iodo-1-methyl-1H-indole-5-carboxylic acid]"
,more than 10 times,"Cn1c(-c2cccc(NC(=O)CCC(=O)Nc3ccc(-c4ccsc4)cc3)c2)c(I)c2cc(C(=O)O)c(O)cc21 [11c-1, 6-hydroxy-3-iodo-1-methyl-2-(3-(4-oxo-4-((4-(thiophen-3-yl)phenyl)amino)butanamido)phenyl)-1H-indole-5-carboxylic acid]"

SMILES,"SHP2 inhibition, in words","IC50 for SHP2, times higher than that of 11a-1"
"Cn1c(-c2cccc(NC(=O)C(=O)Nc3cccc(-c4ccccc4)c3)c2)c(I)c2cc(C(=O)O)c(O)cc21 [11a-5, 2-(3-(2-([1,1′-biphenyl]-3-ylamino)-2-oxoacetamido)phenyl)-6-hydroxy-3-iodo-1-methyl-1H-indole-5-carboxylic acid]",strongly inhibited,

# Same assay, conditions: pNPP substrate, pH 7.0, 25° C.
row,IC50 [nM],SMILES
1,56000,"Cn1c(-c2cccc(NC(=O)CCC(=O)O)c2)c(I)c2cc(C(=O)O)c(O)cc21 [10c, 2-(3-(3-carboxypropanamido)phenyl)-6-hydroxy-3-iodo-1-methyl-1H-indole-5-carboxylic acid]"
2,620 ± 50,"Cn1c(-c2cccc(NC(=O)C(=O)Nc3ccc(-c4ccccc4)cc3)c2)c(I)c2cc(C(=O)O)c(O)cc21 [11a-2, 2-(3-(2-([1,1′-biphenyl]-4-ylamino)-2-oxoacetamido)phenyl)-6-hydroxy-3-iodo-1-methyl-1H-indole-5-carboxylic acid]"
3,660 ± 30,"Cn1c(-c2cccc(NC(=O)C(=O)Nc3ccc(OCc4ccccc4)c(Cl)c3)c2)c(I)c2cc(C(=O)O)c(O)cc21 [11a-3, 2-(3-(2-((4-(benzyloxy)-3-chlorophenyl)amino)-2-oxoacetamido)phenyl)-6-hydroxy-3-iodo-1-methyl-1H-indole-5-carboxylic acid]"
4,760 ± 110,"Cn1c(-c2cccc(NC(=O)C(=O)Nc3nc4ccc(Br)cc4s3)c2)c(I)c2cc(C(=O)O)c(O)cc21 [11a-4, 2-(3-(2-((6-bromobenzo[d]thiazol-2-yl)amino)-2-oxoacetamido)phenyl)-6-hydroxy-3-iodo-1-methyl-1H-indole-5-carboxylic acid]"
5,860 ± 140,"Cn1c(-c2cccc(NC(=O)C(=O)Nc3cccc(OCc4ccccc4)c3)c2)c(I)c2cc(C(=O)O)c(O)cc21 [11a-6, 2-(3-(2-((3-(benzyloxy)phenyl)amino)-2-oxoacetamido)phenyl)-6-hydroxy-3-iodo-1-methyl-1H-indole-5-carboxylic acid]"
6,1050 ± 90,"Cn1c(-c2cccc(NC(=O)C(=O)N3CCc4cc(Br)ccc43)c2)c(I)c2cc(C(=O)O)c(O)cc21 [11a-7, 2-(3-(2-(5-bromoindolin-1-yl)-2-oxoacetamido)phenyl)-6-hydroxy-3-iodo-1-methyl-1H-indole-5-carboxylic acid]"
7,1200 ± 210,"Cn1c(-c2cccc(NC(=O)C(=O)Nc3ccc(I)cc3)c2)c(I)c2cc(C(=O)O)c(O)cc21 [11a-8, 6-hydroxy-3-iodo-2-(3-(2-((4-iodophenyl)amino)-2-oxoacetamido)phenyl)-1-methyl-1H-indole-5-carboxylic acid]"
8,1250 ± 60,"Cn1c(-c2cccc(NC(=O)C(=O)Nc3ccccc3-c3nc4ccccc4[nH]3)c2)c(I)c2cc(C(=O)O)c(O)cc21 [11a-9, 2-(3-(2-((2-(1H-benzo[d]imidazol-2-yl)phenyl)amino)-2-oxoacetamido)phenyl)-6-hydroxy-3-iodo-1-methyl-1H-indole-5-carboxylic acid]"
9,1490 ± 150,"Cn1c(-c2cccc(NC(=O)C(=O)Nc3ccc(-n4ccnc4)cc3)c2)c(I)c2cc(C(=O)O)c(O)cc21 [11a-12, 2-(3-(2-((4-(1H-imidazol-1-yl)phenyl)amino)-2-oxoacetamido)phenyl)-6-hydroxy-3-iodo-1-methyl-1H-indole-5-carboxylic acid]"
10,1760 ± 80,"Cn1c(-c2cccc(NC(=O)C(=O)Nc3ccc(Cl)c(C(F)(F)F)c3)c2)c(I)c2cc(C(=O)O)c(O)cc21 [11a-13, 2-(3-(2-((4-chloro-3-(trifluoromethyl)phenyl)amino)-2-oxoacetamido)phenyl)-6-hydroxy-3-iodo-1-methyl-1H-indole-5-carboxylic acid]"
11,1790 ± 150,"Cn1c(-c2cccc(NC(=O)C(=O)Nc3nnc(-c4ccccc4)s3)c2)c(I)c2cc(C(=O)O)c(O)cc21 [11a-14, 6-hydroxy-3-iodo-1-methyl-2-(3-(2-oxo-2-((5-phenyl-1,3,4-thiadiazol-2-yl)amino)acetamido)phenyl)-1H-indole-5-carboxylic acid]"
12,1840 ± 90,"Cn1c(-c2cccc(NC(=O)C(=O)Nc3ccc(F)cc3)c2)c(I)c2cc(C(=O)O)c(O)cc21 [11a-15, 2-(3-(2-((4-fluorophenyl)amino)-2-oxoacetamido)phenyl)-6-hydroxy-3-iodo-1-methyl-1H-indole-5-carboxylic acid]"
13,2310 ± 280,"Cn1c(-c2cccc(NC(=O)C(=O)Nc3nccs3)c2)c(I)c2cc(C(=O)O)c(O)cc21 [11a-16, 6-hydroxy-3-iodo-1-methyl-2-(3-(2-oxo-2-(thiazol-2-ylamino)acetamido)phenyl)-1H-indole-5-carboxylic acid]"
14,2390 ± 150,"Cn1c(-c2cccc(NC(=O)C(=O)Nc3cccc(OC(F)(F)F)c3)c2)c(I)c2cc(C(=O)O)c(O)cc21 [11a-17, 6-hydroxy-3-iodo-1-methyl-2-(3-(2-oxo-2-((3-(trifluoromethoxy)phenyl)amino)acetamido)phenyl)-1H-indole-5-carboxylic acid]"
15,2730 ± 550,"Cn1c(-c2cccc(NC(=O)C(=O)Nc3cccc(Br)c3)c2)c(I)c2cc(C(=O)O)c(O)cc21 [11a-18, 2-(3-(2-((3-bromophenyl)amino)-2-oxoacetamido)phenyl)-6-hydroxy-3-iodo-1-methyl-1H-indole-5-carboxylic acid]"
16,4660 ± 500,"Cn1c(-c2cccc(NC(=O)C(=O)Nc3cccc(F)c3)c2)c(I)c2cc(C(=O)O)c(O)cc21 [11a-19, 2-(3-(2-((3-fluorophenyl)amino)-2-oxoacetamido)phenyl)-6-hydroxy-3-iodo-1-methyl-1H-indole-5-carboxylic acid]"
17,5420 ± 1010,"Cn1c(-c2cccc(NC(=O)C(=O)Nc3cccc(I)c3)c2)c(I)c2cc(C(=O)O)c(O)cc21 [11a-20, 6-hydroxy-3-iodo-2-(3-(2-((3-iodophenyl)amino)-2-oxoacetamido)phenyl)-1-methyl-1H-indole-5-carboxylic acid]"
18,220 ± 10,"Cn1c(-c2cccc(NC(=O)C(=O)Nc3ccc(-c4ccc(C#N)cc4)cc3)c2)c(I)c2cc(C(=O)O)c(O)cc21 [11a-21, 2-(3-(2-((4′-cyano-[1,1′-biphenyl]-4-yl)amino)-2-oxoacetamido)phenyl)-6-hydroxy-3-iodo-1-methyl-1H-indole-5-carboxylic acid]"
19,310 ± 20,"Cn1c(-c2cccc(NC(=O)C(=O)Nc3ccc(-c4cccc(C#N)c4)cc3)c2)c(I)c2cc(C(=O)O)c(O)cc21 [11a-22, 2-(3-(2-((3′-cyano-[1,1′-biphenyl]-4-yl)amino)-2-oxoacetamido)phenyl)-6-hydroxy-3-iodo-1-methyl-1H-indole-5-carboxylic acid]"
20,370 ± 10,"Cn1c(-c2cccc(NC(=O)C(=O)Nc3ccccc3-c3ccc(CO)o3)c2)c(I)c2cc(C(=O)O)c(O)cc21 [11a-23, 6-hydroxy-2-(3-(2-((2-(5-(hydroxymethyl)furan-2-yl)phenyl)amino)-2-oxoacetamido)phenyl)-3-iodo-1-methyl-1H-indole-5-carboxylic acid]"
21,380 ± 10,"Cn1c(-c2cccc(NC(=O)C(=O)Nc3cccc(-c4ccco4)c3)c2)c(I)c2cc(C(=O)O)c(O)cc21 [11a-24, 2-(3-(2-((3-(furan-2-yl)phenyl)amino)-2-oxoacetamido)phenyl)-6-hydroxy-3-iodo-1-methyl-1H-indole-5-carboxylic acid]"
22,420 ± 20,"Cn1c(-c2cccc(NC(=O)C(=O)Nc3cccc(-c4ccc(C#N)cc4)c3)c2)c(I)c2cc(C(=O)O)c(O)cc21 [11a-25, 2-(3-(2-((4′-cyano-[1,1′-biphenyl]-3-yl)amino)-2-oxoacetamido)phenyl)-6-hydroxy-3-iodo-1-methyl-1H-indole-5-carboxylic acid]"
23,630 ± 40,"Cn1c(-c2cccc(NC(=O)C(=O)Nc3cccc(-c4ccsc4)c3)c2)c(I)c2cc(C(=O)O)c(O)cc21 [11a-26, 6-hydroxy-3-iodo-1-methyl-2-(3-(2-oxo-2-((3-(thiophen-3-yl)phenyl)amino)acetamido)phenyl)-1H-indole-5-carboxylic acid]"
24,2300,"Cn1c(-c2cccc(NC(=O)CCC(=O)Nc3ccc(-c4ccsc4)cc3)c2)c(I)c2cc(C(=O)O)c(O)cc21 [11c-1, 6-hydroxy-3-iodo-1-methyl-2-(3-(4-oxo-4-((4-(thiophen-3-yl)phenyl)amino)butanamido)phenyl)-1H-indole-5-carboxylic acid]"
25,3600 ± 300,"Cn1c(-c2cccc(NC(=O)CCC(=O)Nc3ccc(Oc4ccccc4)cc3)c2)c(I)c2cc(C(=O)O)c(O)cc21 [11c-2, 6-hydroxy-3-iodo-1-methyl-2-(3-(4-oxo-4-((4-phenoxyphenyl)amino)butanamido)phenyl)-1H-indole-5-carboxylic acid]"
26,5000 ± 900,"Cn1c(-c2cccc(NC(=O)CCC(=O)Nc3ccc(OCc4ccccc4)c(Cl)c3)c2)c(I)c2cc(C(=O)O)c(O)cc21 [11c-3, 2-(3-(4-((4-(benzyloxy)-3-chlorophenyl)amino)-4-oxobutanamido)phenyl)-6-hydroxy-3-iodo-1-methyl-1H-indole-5-carboxylic acid]"

row,SMILES,IC50 [nM]
1,"Cn1c(-c2cccc(NC(=O)C(=O)Nc3cccc(-c4ccccc4)c3)c2)c(I)c2cc(C(=O)O)c(O)cc21 [11a-5, 2-(3-(2-([1,1′-biphenyl]-3-ylamino)-2-oxoacetamido)phenyl)-6-hydroxy-3-iodo-1-methyl-1H-indole-5-carboxylic acid]",770 ± 150
2,"Cn1c(-c2cccc(NC(=O)C(=O)Nc3cccc(Cl)c3)c2)c(I)c2cc(C(=O)O)c(O)cc21 [11a-11, 2-(3-(2-((3-chlorophenyl)amino)-2-oxoacetamido)phenyl)-6-hydroxy-3-iodo-1-methyl-1H-indole-5-carboxylic acid]",1460 ± 450
